Data as given in patent US11952611B2, “Methods and systems for detection of antibiotic resistance” (Laboratory Corporation of America Holdings, priority 2017, dated 2024).
Like-named read-outs stand apart in the source and are kept apart here.

Assays:
E. coli O157:H7 = assay type: cell-based; details: for signal reduction as compared to controls: 30 min antibiotic then 120 min phage
MRSA = assay: Recombinant phage luciferase assay, oxacillin vs cefoxitin (Table 1), MRSA strains; assay type: cell-based, Staphylococcus aureus
Description: (§1) Bacterial strains were serially diluted to approximately 1×10^3 CFU/mL and transferred to a 96-well plate at 135 μL per well. 15 μL of oxacillin or cefoxitin were added to the wells to reach a final concentration of 1.0 μg/mL or 2.0 μg/mL of oxicillin or 2.0 μg/mL, 4.0 μg/mL, 8.0 μg/mL, or 10.0 μg/mL of cefoxitin. The plate was then sealed and incubated at 37° C. for 2 hours. 10 μL of recombinant phage (1.6×10^8 pfu/mL) was added to each well. The plate was then re-sealed and incubated at 37° C. for 2 hours. A master mix was made containing 15 μL 5× lysis buffer, 50 μL luciferase assay buffer, and 1 μL luciferase substrate per well. 65 μL of master mix was added to each well. Luminescence from the reactions was read on a GLOMAX® Navigator and relative luminal units (RLU) for each reaction were analyzed. RLU values three times greater than an established background RLU level for LB (>750 RLU) were considered positive. The results, shown in Table 1, indicate that the recombinant phage are capable of detecting the tested bacterial strains.

MSSA = assay: Recombinant phage luciferase assay, oxacillin vs cefoxitin (Table 1), MSSA strains; assay type: cell-based, Staphylococcus aureus
Description: as §1

[1] = strain AR0463 MRSA, detected CFU 419
[2] = strain AR0465 MRSA, detected CFU 111
[3] = strain AR0472 MRSA, detected CFU 190
[4] = strain AR0476 MRSA, detected CFU 194
[5] = strain AR0481 MRSA, detected CFU 43
[6] = strain BAA-1720 MRSA, detected CFU 201
[7] = strain 12600 MSSA, detected CFU 389
[8] = strain AR0484 MSSA, detected CFU 153
[9] = strain AR0488 MSSA, detected CFU 285
[10] = strain AR0491 MSSA, detected CFU 300

## CN[C@H](CC(C)C)C(=O)N[C@H]1C(=O)N[C@@H](CC(N)=O)C(=O)N[C@H]2C(=O)N[C@H]3C(=O)N[C@H](C(=O)N[C@H](C(=O)O)c4cc(O)cc(O)c4-c4cc3ccc4O)[C@H](O)c3ccc(c(Cl)c3)Oc3cc2cc(c3O[C@@H]2O[C@H](CO)[C@@H](O)[C@H](O)[C@H]2O[C@H]2C[C@](C)(N)[C@H](O)[C@H](C)O2)Oc2ccc(cc2Cl)[C@H]1O [vancomycin]
E. coli O157:H7
  cells resistant or sensitive: resistant
E. coli O157:H7; 10 μg/mL, 25 μg/mL, 50 μg/mL, or 100 μg/mL
  signal change upon exposure: signals increased

## CC1(C)S[C@@H]2[C@H](NC(=O)[C@H](N)c3ccccc3)C(=O)N2[C@H]1C(=O)O [ampicillin]
E. coli O157:H7
  cells resistant or sensitive: sensitive
E. coli O157:H7; 10 μg/mL
  signal reduction as compared to controls: about 100 fold
E. coli O157:H7; 25 μg/mL
  signal reduction as compared to controls: ~1400 fold
E. coli O157:H7; 50 μg/mL
  signal reduction as compared to controls: ~2200 fold

## Cc1onc(-c2ccccc2)c1C(=O)N[C@@H]1C(=O)N2[C@@H]1SC(C)(C)[C@@H]2C(=O)O [Oxacillin, oxacillin]
MRSA; several MRSA strains
  detection after incubation with oxacillin: no detection
MRSA; [1]
  Oxacillin (RLU) 1 ug/mL: 426 RLU
  Oxacillin (RLU) 2 ug/mL: 353 RLU
MRSA; [2]
  Oxacillin (RLU) 1 ug/mL: 4944 RLU
  Oxacillin (RLU) 2 ug/mL: 4965 RLU
MRSA; [3]
  Oxacillin (RLU) 1 ug/mL: 348 RLU
  Oxacillin (RLU) 2 ug/mL: 281 RLU
MRSA; [4]
  Oxacillin (RLU) 1 ug/mL: 553 RLU
  Oxacillin (RLU) 2 ug/mL: 212 RLU
MRSA; [5]
  Oxacillin (RLU) 1 ug/mL: 467 RLU
  Oxacillin (RLU) 2 ug/mL: 268 RLU
MRSA; [6]
  Oxacillin (RLU) 1 ug/mL: 23810 RLU
  Oxacillin (RLU) 2 ug/mL: 22560 RLU
MSSA; several MSSA strains
  detection after incubation with oxacillin: no detection
MSSA; [7]
  Oxacillin (RLU) 1 ug/mL: 1459 RLU
  Oxacillin (RLU) 2 ug/mL: 697 RLU
MSSA; [8]
  Oxacillin (RLU) 1 ug/mL: 268 RLU
  Oxacillin (RLU) 2 ug/mL: 219 RLU
MSSA; [9]
  Oxacillin (RLU) 1 ug/mL: 228 RLU
  Oxacillin (RLU) 2 ug/mL: 198 RLU
MSSA; [10]
  Oxacillin (RLU) 1 ug/mL: 245 RLU
  Oxacillin (RLU) 2 ug/mL: 221 RLU
